We go through 62 molecules from US6784201B2, “Benzothiepines having activity as inhibitors of ileal bile acid transport and taurocholate uptake” (G.D. Searle & Company, priority 1994, dated 2004).

In the assay the target is T1, human IBAT (Homo sapiens, UniProt Q12908).
T1 construct: expressed in transfected cells; host or cells: Baby hamster kidney (BHK) cells, clone H14
T1 sequence (Q12908 1-348): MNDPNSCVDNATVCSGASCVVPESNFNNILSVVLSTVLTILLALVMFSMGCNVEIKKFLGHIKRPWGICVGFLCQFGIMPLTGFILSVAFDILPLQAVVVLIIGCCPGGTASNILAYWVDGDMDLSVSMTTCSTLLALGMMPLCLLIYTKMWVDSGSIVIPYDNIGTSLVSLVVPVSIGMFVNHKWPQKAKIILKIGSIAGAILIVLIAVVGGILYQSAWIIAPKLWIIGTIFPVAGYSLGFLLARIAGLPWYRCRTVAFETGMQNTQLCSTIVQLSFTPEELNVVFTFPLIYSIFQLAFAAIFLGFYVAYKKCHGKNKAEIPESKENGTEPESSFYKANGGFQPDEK
In words: In vitro assay of IBAT-mediated uptake of [14C]-taurocholate (TC) in H14 cells. Type of assay: cell-based. To be noted: read-out: Human TC IC50. Summed up: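 BHK cells stably expressing human IBAT (H14) were incubated 2 h at 37° C with compound and 3 μM final [14C]-taurocholate in DMEM (4.5 g/L glucose) plus 0.2% fatty acid-free BSA. After cold PBS washes, cell-associated radioactivity was measured by scintillation counting.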

Turning to `CCCCN(C)c1ccc2c(c1)C(c1cccc(OC)c1)C(O)C(CCCC)(CCCC)CS2(=O)=O` (centres unmarked) [Example 1177], the IC50 stood at 180 nM.

On to `CCCCC1(CCCC)CS(=O)(=O)c2ccc(N(C)C)cc2C(c2cccc(OS(=O)(=O)C(F)(F)F)c2)C1O` (centres unmarked) [Example 1178], for which the IC50 turned out to be 190 nM. On to `CCCCC1(CCCC)CS(=O)(=O)c2cc(OC)ccc2C(c2ccccc2)C1O` (centres unmarked) [Example 1179], for which the half-maximal inhibitory concentration (IC50) stood at 190 nM. The value for `CCCCC1(CCCC)CS(=O)(=O)c2ccc([N+](C)(C)C)cc2C(c2ccccc2)C1O` (centres unmarked) [Example 1180] was 200 nM. The value for `CCCCN(C)c1ccc2c(c1)C(c1ccc(F)cc1)C(O)C(CCCC)(CCCC)CS2(=O)=O` (centres unmarked) [Example 1181] was 220 nM.

For `CCCCC1(CCCC)CS(=O)(=O)c2ccc(OC)cc2C(c2ccc(N(C)C)cc2)C1O` (centres unmarked) [Example 1182], the IC50 came out at 250 nM. Next, `CCCCC1(CCCC)CS(=O)(=O)c2ccc(F)cc2C(c2cccc(OC)c2)C1O` (centres unmarked) [Example 1183]: 280 nM; `CCCCC1(CCCC)CS(=O)(=O)c2c(F)cc(F)cc2C(c2ccc(F)cc2)C1O` (centres unmarked) [Example 1184]: 280 nM. The value for `CCCCC1(CCCC)CS(=O)(=O)c2ccc(F)cc2C(c2ccc(F)cc2)C1O` (centres unmarked) [Example 1185] was 280 nM; that for `CCCCC1(CCCC)CS(=O)(=O)c2c(F)cc(F)cc2C(c2ccccc2)C1O` (centres unmarked) [Example 1186] was 300 nM.

With `CCCCC1(CCCC)CS(=O)(=O)c2ccc(C)cc2C(c2ccc(F)cc2)C1O` (centres unmarked) [Example 1187], the half-inhibitory concentration (IC50) was found to be 320 nM. Next, `CCCCC1(CCCC)CS(=O)(=O)c2ccc([N+](C)(C)C)cc2C(c2ccc(OC)cc2)C1O` (centres unmarked) [Example 1188]: 350 nM; `CCCCC1(CCCC)CS(=O)(=O)c2ccc([N+](C)(C)C)cc2C(c2ccc(F)c(F)c2)C1O` (centres unmarked) [Example 1189]: 350 nM; `CCCCC1(CCCC)CS(=O)(=O)c2ccc(Br)cc2C(c2ccccc2Br)C1O` (centres unmarked) [Example 1190]: 550 nM. `CCCCC1(CCCC)CS(=O)(=O)c2ccc(O)cc2C(c2ccc(N(C)C)cc2)C1O` (centres unmarked) [Example 1191]: the IC50 is 650 nM. The value for `CCCCC1(CCCC)CS(=O)(=O)c2ccc(O)cc2C(c2cccc(N(C)C)c2)C1O` (centres unmarked) [Example 1192] was 1000 nM; that for `CCCCC1(CCCC)CS(=O)(=O)c2ccc(N(C)C)cc2C(c2ccc(OCCOCCOCCOc3ccc(C4c5cc(N(C)C)ccc5S(=O)(=O)CC(CCCC)(CCCC)C4O)cc3F)c(F)c2)C1O` (centres unmarked) [Example 1194] was 1600 nM; that for `CCCCC1(CCCC)CS(=O)(=O)c2ccc(N3CCN(C)CC3)cc2C(c2ccc(OC)cc2)C1O` (centres unmarked) [Example 1195] was 1700 nM. Next, `CCCCC1(CCCC)CS(=O)(=O)c2ccc(OC)cc2C(c2cccc([N+](C)(C)C)c2)C1O` (centres unmarked) [Example 1196]: 2000 nM; `CCCCC1(CC)CS(=O)(=O)c2ccc(N(C)C=O)cc2C(c2ccccc2)C1=O` (centres unmarked) [Example 1197]: 2200 nM. Next, `CCCCC1(CCCC)CS(=O)(=O)c2ccc(OC)cc2C(c2cc[n+]([O-])cc2)C1O` (centres unmarked) [Example 1198]: 2500 nM; `CCCCC1(CCCC)CS(=O)(=O)c2ccc(N(C)C)cc2C(c2ccc(OCCOCCOCCOc3ccc(C4c5cc(N(C)C)ccc5S(=O)(=O)CC(CCCC)(CCCC)C4O)cc3)cc2)C1O` (centres unmarked) [Example 1199]: 4000 nM; `CCCCC1(CCCC)CS(=O)(=O)c2ccc(C)cc2CC1O` (centres unmarked) [Example 1201]: 8300 nM.

Consider `CCCCC1(CCCC)CS(=O)(=O)c2ccc(OC)cc2C(c2ccc([N+](C)(C)C)cc2)C1O` (centres unmarked) [Example 1202], for which the IC50 turned out to be 40000 nM. The value for `CCCCC1(CCCC)CS(=O)(=O)c2ccc(OC)cc2C(c2ccc(F)cc2)C1O` (centres unmarked) [Example 1204] was 50 nM. Next, `CCCCC1(CCCC)CS(=O)(=O)c2ccc(N(C)C)cc2C(c2ccc(OCCOCCOCCI)cc2)C1O` (centres unmarked) [Example 1205]: 34 nM; `CCCCC1(CCCC)CS(=O)(=O)c2ccc(N(C)C)cc2C(c2cccc(C[N+](CC)(CC)CC)c2)C1O` (centres unmarked) [Example 1206]: 35 nM. Next, `CCCCC1(CCCC)CS(=O)(=O)c2ccc(N(C)C)cc2C(c2cc(Cl)cc(Cl)c2)C1O` (centres unmarked) [Example 1207]: 68 nM; `CCCCC1(CCCC)CS(=O)(=O)c2ccc(N(C)C)cc2C(c2ccc(OC)cc2)C1O` (centres unmarked) [Example 1208]: 42 nM; `CCCCC1(CCCC)CS(=O)(=O)c2ccc(N(C)C)cc2C(c2ccccc2N(C)C)C1O` (centres unmarked) [Example 1210]: 140 nM. With `CCCCC1(CC)CS(=O)(=O)c2ccc(N(C)C=O)cc2C(c2ccccc2)C1O` (centres unmarked) [Example 1214], the IC50 stood at 750 nM. The value for `CCCCC1(CCCC)CS(=O)(=O)c2c(SC)cccc2C(c2ccc(OC)cc2)C1O` (centres unmarked) [Example 1215] was 190 nM.

`CCCCC1(CCCC)CS(=O)(=O)c2ccc(N(C)C)cc2C(c2ccc(C(=O)O)cc2)C1O` (centres unmarked) [Example 1217]: the IC50 was 320 nM. Next, `CCCCC1(CCCC)CS(=O)(=O)c2c(cccc2S(C)(=O)=O)C(c2ccc(OC)cc2)C1O` (centres unmarked) [Example 1218]: 190 nM. The value for `CCCCC1(CCCC)CS(=O)(=O)c2ccc(N(C)C)cc2C(c2ccc(OCCN(C)C)cc2)C1O` (centres unmarked) [Example 1219] was 340 nM. On to `CCCCC1(CCCC)CS(=O)(=O)c2ccc(NC(C)C)cc2C(c2cccc(OC)c2)C1O` (centres unmarked) [Example 1220], for which the IC50 is 200 nM. The value for `CCCCC1(CCCC)CS(=O)(=O)c2ccc(N(C)C)cc2C(c2ccc(C(=O)OC)cc2)C1O` (centres unmarked) [Example 1221] was 41 nM; that for `CCCCC1(CCCC)CS(=O)(=O)c2ccc(NCC)cc2C(c2cccc(OC)c2)C1O` (centres unmarked) [Example 1222] was 65 nM; that for `CCCCC1(CCCC)CS(=O)(=O)c2cc(Br)c(NC)cc2C(c2ccccc2)C1O` (centres unmarked) [Example 1223] was 280 nM. Next, `CCCCC1(CCCC)CS(=O)(=O)c2ccc(F)cc2C(c2cccc([N+](=O)[O-])c2)C1O` (centres unmarked) [Example 1224]: 330 nM; `CCCCC1(CCCC)CS(=O)(=O)c2cc(Br)c(N(C)C)cc2C(c2ccc[nH]2)C1O` (centres unmarked) [Example 1228]: 38 nM; `CCCCC1(CCCC)CS(=O)(=O)c2ccc(N(C)C)cc2C(c2ccc(O)c(Cl)c2)C1O` (centres unmarked) [Example 1229]: 49 nM.

Turning to `CCCCC1(CCCC)CS(=O)(=O)c2c(cc(F)cc2N(C)C)C(c2ccccc2)C1O` (centres unmarked) [Example 1230], the IC50 was determined as 62 nM. The value for `CCCCC1(CCCC)CS(=O)(=O)c2ccc(N(C)C)cc2C(c2ccc3cc(OC)ccc3c2)C1O` (centres unmarked) [Example 1231] was 75 nM; that for `CCCCC1(CCCC)CS(=O)(=O)c2ccc(N(C)C)cc2C(c2cccc(C[N+](C)(C)CCN(C)C)c2)C1O` (centres unmarked) [Example 1233] was 150 nM. The value for `CCCCC1(CCCC)CS(=O)(=O)c2ccc(N(C)C)cc2C(c2cccc(C[N+](C)(C)C)c2)C1O` (centres unmarked) [Example 1234] was 67 nM. Next, `CCCCC1(CCCC)CS(=O)(=O)c2ccc(N(C)C)cc2C(c2cccc(OCCN(CC)CC)c2)C1O` (centres unmarked) [Example 1235]: 45 nM; `CCCCC1(CCCC)CS(=O)(=O)c2ccc(N(C)C)cc2C(c2ccc(CBr)cc2)C1O` (centres unmarked) [Example 1236]: 50 nM. On to `CCCCC1(CCCC)CS(=O)(=O)c2ccc(N(C)C)cc2C(c2ccc(OCC[N+](C)(C)CCOCCOCC[N+](C)(C)C)cc2)C1O` (centres unmarked) [Example 1237], for which the IC50 is 70 nM. The value for `C=COCCOCCOCCOc1ccc(C2c3cc(N(C)C)ccc3S(=O)(=O)CC(CCCC)(CCCC)C2O)cc1F` (centres unmarked) [Example 1238] was 800 nM. For the molecule `CCCCC1(CCCC)CS(=O)(=O)c2ccc(N(C)C)cc2C(c2ccc(OCCOCCBr)c(F)c2)C1O` (centres unmarked) [Example 1239], the half-maximal inhibitory concentration (IC50) came out at 35 nM. The value for `CCCCC1(CCCC)CS(=O)(=O)c2ccc(N(C)C)cc2C(c2ccc(OC)c(C)c2)C1O` (centres unmarked) [Example 1240] was 16 nM; that for `CCCCC1(CCCC)CS(=O)(=O)c2ccc(N(C)C)cc2C(c2cccc(CN(C)C)c2)C1O` (centres unmarked) [Example 1241] was 47 nM; that for `CCCCC1(CCCC)CS(=O)(=O)c2ccc(N(C)C)cc2C(c2ccc(OCCOCCOCCOCCCl)c(F)c2)C1O` (centres unmarked) [Example 1242] was 29 nM. For the molecule `CCCCC1(CCCC)CS(=O)(=O)c2ccc(N(C)C)cc2C(c2ccc(O)c(C[N+](C)(C)C)c2)C1O` (centres unmarked) [Example 1243], the IC50 turned out to be 630 nM.

Turning to `CCCCC1(CCCC)CS(=O)(=O)c2ccc(N(C)C)cc2C(c2cccc([N+](C)(C)C)c2)C1O` (centres unmarked) [Example 1245], the IC50 came to 320 nM. Consider `CCCCC1(CCCC)CS(=O)(=O)c2ccc(N(C)C)cc2C(c2cccc(CBr)c2)C1O` (centres unmarked) [Example 1246], for which the half-inhibitory concentration (IC50) is 18 nM. Next, `CCCCC1(CCCC)CS(=O)(=O)c2ccc(N(C)C)cc2C(c2ccc3cc(O)ccc3c2)C1O` (centres unmarked) [Example 1247]: 17 nM; `CCCCC1(CCCC)CS(=O)(=O)c2ccc(N(C)C)cc2C(c2ccc(O)c(CN(C)C)c2)C1O` (centres unmarked) [Example 1248]: 330 nM; `CCCCC1(CCCC)CS(=O)(=O)c2ccc(N(C)C)cc2C(c2ccc(C[N+](C)(C)CCO)cc2)C1O` (centres unmarked) [Example 1249]: 10200 nM. Next, `CCCCC1(CCCC)CS(=O)(=O)c2ccc(N(C)C)cc2C(c2cccc(N(C)C)c2)C1O` (centres unmarked) [Example 1250]: 13 nM; `CCCCC1(CCCC)CS(=O)(=O)c2ccc(N(C)C)cc2C(c2cccc3ccccc23)C1O` (centres unmarked) [Example 1251]: 620 nM.

As usually defined, the IC50 is the concentration that inhibits the measured activity by half.
